Laboratory results taken from patent EP4603105A1, “PHARMACEUTICAL COMPOSITION CONTAINING CYCLIC COMPOUND HAVING SELECTIVE KRAS INHIBITORY EFFECT AGAINST HRAS AND NRAS” (CHUGAI SEIYAKU KABUSHIKI KAISHA, priority 2022, dated 2024).

Columns and labels:
[1] = molecular target: GDP-bound KRAS wild-type protein (Homo sapiens, UniProt P01116); experiment: Binding to KRAS by surface plasmon resonance (SPR), dissociation constant KD; details: Single Cycle Kinetics, 1:1 binding model
Method in brief: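 Running buffer contained 10 µM GDP and 10 mM MgCl2 to keep RAS in the GDP state, with 4% DMSO at pH 7.4. Compounds were flowed at 100 µL/min in 75 s steps of rising concentration over captured biotin-Avi RAS at 30°C. Sensorgrams were fitted 1:1 for KD.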

[2] = test system: human lung cancer strain NCI-H441; type: cell-based
Method in brief: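 Step one: dispense the test compound in serial DMSO dilutions. Step three: add the reagent and measure […].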

HRAS wild-type protein = HRAS wild-type protein (Homo sapiens, UniProt P01112); experiment: Binding to HRAS by surface plasmon resonance (SPR), KD and KD ratio to KRAS; details: ratio of the KD value with respect to HRAS wild-type protein to the KD value with respect to KRAS
Chain of HRAS wild-type protein (P01112 whole entry): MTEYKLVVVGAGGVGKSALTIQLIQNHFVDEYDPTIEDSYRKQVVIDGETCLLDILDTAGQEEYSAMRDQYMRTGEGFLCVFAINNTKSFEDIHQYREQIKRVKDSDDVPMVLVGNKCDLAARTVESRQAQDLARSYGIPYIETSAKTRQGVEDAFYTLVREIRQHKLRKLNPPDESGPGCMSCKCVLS
Method in brief: (§1)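 Captured GDP-RAS (~100–300 RU) was exposed to increasing compound concentrations, 75 s per step, in running buffer with 10 µM GDP, 10 mM MgCl2 and 4% DMSO at pH 7.4.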

[3] = molecular target: GDP-bound NRAS wild-type protein (Homo sapiens, UniProt P01111); experiment: Binding to NRAS by surface plasmon resonance (SPR), KD and KD ratio to KRAS; details: ratio of the KD value with respect to GDP-bound NRAS wild-type protein to the KD value with respect to KRAS
Chain of GDP-bound NRAS wild-type protein (P01111 whole entry): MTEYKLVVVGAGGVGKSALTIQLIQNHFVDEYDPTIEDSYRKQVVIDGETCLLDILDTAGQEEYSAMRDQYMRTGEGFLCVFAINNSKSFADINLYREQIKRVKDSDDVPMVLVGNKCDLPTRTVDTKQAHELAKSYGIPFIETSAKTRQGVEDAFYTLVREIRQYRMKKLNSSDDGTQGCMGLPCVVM
Method in brief: as §1

Chain of GDP-bound KRAS wild-type protein (P01116 1-188 isoform P01116-2): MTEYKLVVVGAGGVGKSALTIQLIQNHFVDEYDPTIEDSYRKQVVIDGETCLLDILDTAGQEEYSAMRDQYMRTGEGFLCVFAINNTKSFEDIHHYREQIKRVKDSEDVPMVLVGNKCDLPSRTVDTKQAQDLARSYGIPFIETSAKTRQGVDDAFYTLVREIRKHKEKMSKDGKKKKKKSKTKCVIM

Compound	Kd [1] [nM]	IC50 [2] [nM]	HRAS /KRAS (HRAS wild-type protein)	NRAS /KRAS [3]
CCC[C@@H]1C[C@H]2C(=O)NC3(CCCC3)C(=O)N(C)[C@@H](C3CCCC3)C(=O)N(C)[C@H](C(=O)N(C)C)CC(=O)N(C)[C@@H](CC)C(=O)N[C@@H]([C@@H](C)CC)C(=O)N(C)CC(=O)N(C)[C@H]3C/C=C\CCN(C3=O)[C@@H](Cc3ccc(C)cc3)C(=O)N(C)CC(=O)N[C@@H](CCc3cc(F)c(C(F)(F)F)c(F)c3)C(=O)N2C1 [PP2227]	0.27	50.3	A (a compound having 10 or more and less than 20 is denoted as A)	A (a compound having 10 or more and less than 20 is denoted as A)
CCCOC[C@H]1C(=O)N[C@@H]([C@@H](C)CC)C(=O)N(C)CC(=O)N(C)[C@H]2C/C=C\CCN(C2=O)[C@@H](Cc2ccc(C)cc2)C(=O)N(C)CC(=O)N[C@@H](CCc2cc(F)c(C(F)(F)F)c(F)c2)C(=O)N2C[C@H](CCC)C[C@H]2C(=O)NC2(CCC2)C(=O)N(C)[C@@H](C2CCCC2)C(=O)N(C)[C@H](C(=O)N(C)C)CC(=O)N1C [PP2232]	0.22	18.7	A (a compound having 10 or more and less than 20 is denoted as A)	A (a compound having 10 or more and less than 20 is denoted as A)
CCC[C@H]1C(=O)N[C@@H](C2CCC2)C(=O)N(C)CC(=O)N(C)[C@H]2C/C=C\CCN(C2=O)[C@@H](Cc2ccc(C)cc2)C(=O)N(C)CC(=O)N[C@@H](CCc2ccc(C(F)(F)F)c(F)c2)C(=O)N2C[C@H](OCC)C[C@H]2C(=O)NC2(CC(C)(C)C2)C(=O)N(C)[C@@H](C2CCC2)C(=O)N(C)[C@H](C(=O)N(C)C)CC(=O)N1C [PP2242]	1.8	178	A (a compound having 10 or more and less than 20 is denoted as A)	A (a compound having 10 or more and less than 20 is denoted as A)
CCO[C@@H]1C[C@H]2C(=O)NC3(CCC3)C(=O)N(C)[C@@H](C3CCCC3)C(=O)N(C)[C@H](C(=O)N(C)CC)CC(=O)N(C)[C@H]3CCCCCCc4ccc(cc4)C[C@@H](C(=O)N(C)CC(=O)N[C@@H](CCc4ccc(C(F)(F)F)c(OC)c4)C(=O)N2C1)N1CC/C=C\C[C@@H](C1=O)N(C)C(=O)CN(C)C(=O)[C@H]([C@@H](C)CC)NC3=O [PP2263]	0.98	19.5	A (a compound having 10 or more and less than 20 is denoted as A)	A (a compound having 10 or more and less than 20 is denoted as A)
CCOC[C@H]1C(=O)N[C@@H]([C@@H](C)CC)C(=O)N(C2CC2)CC(=O)N(C)[C@H]2C/C=C\CCN(C2=O)[C@@H](Cc2ccc(C(F)(F)F)cc2)C(=O)N(C)CC(=O)N[C@@H](CCc2ccc(C(F)(F)F)c(OC)c2)C(=O)N2C[C@H](OCC)C[C@H]2C(=O)N(C)C2(CCC2)C(=O)N(C)[C@@H](C(CC)CC)C(=O)N(C)[C@H](C(=O)N(C)C)CC(=O)N1C [PP2315]	0.33	9	A (a compound having 10 or more and less than 20 is denoted as A)	A (a compound having 10 or more and less than 20 is denoted as A)
CCCOC[C@H]1C(=O)N[C@@H]([C@@H](C)CC)C(=O)N(C)CC(=O)N(C)[C@H]2C/C=C\CCN(C2=O)[C@@H](Cc2ccc(C)cc2)C(=O)N(C)CC(=O)N[C@@H](CCc2ccc(C(F)(F)F)c(OC)c2)C(=O)N2C[C@H](OCC)C[C@H]2C(=O)N(C)C2(CCC2)C(=O)N(C)[C@@H](C2CCCC2)C(=O)N(C)[C@H](C(=O)N(C)C)CC(=O)N1C [PP2326]	0.031	1.6	B (a compound having 3 or more and less than 10 is denoted as B)	A (a compound having 10 or more and less than 20 is denoted as A)
CCC[C@H]1C(=O)N[C@@H]([C@@H](C)CC)C(=O)N(C)CC(=O)N(C)[C@H]2C/C=C\CCN(C2=O)[C@@H](CC2CCCCC2)C(=O)N(C)CC(=O)N[C@@H](CCc2ccc(C(F)(F)F)c(OC)c2)C(=O)N2C[C@H](OCC)C[C@H]2C(=O)N(C)C2(CCC2)C(=O)N(C)[C@@H](C(CC)CC)C(=O)N(C)[C@H](C(=O)N(C)C)CC(=O)N1C [PP2333]	1.9	44.7	A (a compound having 10 or more and less than 20 is denoted as A)	A (a compound having 10 or more and less than 20 is denoted as A)

Further compounds by falling Kd [1], results first:

Kd [1] [nM]	IC50 [2] [nM]	Compound	HRAS /KRAS (HRAS wild-type protein)	NRAS /KRAS [3]
0.4	8.2	CCC[C@H]1C(=O)N[C@@H]([C@@H](C)CC)C(=O)N(C2CC2)CC(=O)N(C)[C@H]2C/C=C\CCN(C2=O)[C@@H](Cc2ccc(C)cc2)C(=O)N(C)CC(=O)N[C@@H](CCc2ccc(C(F)(F)F)c(OC)c2)C(=O)N2C[C@H](OCC)C[C@H]2C(=O)N(C)C2(CCC2)C(=O)N(C)[C@@H](C(CC)CC)C(=O)N(C)[C@H](C(=O)N(C)C)CC(=O)N1C [PP2325]	A (a compound having 10 or more and less than 20 is denoted as A)	A (a compound having 10 or more and less than 20 is denoted as A)
0.28	22.1	CCCOC[C@H]1C(=O)N[C@@H]([C@@H](C)CC)C(=O)N(C)CC(=O)N(C)[C@H]2C/C=C\CCN(C2=O)[C@@H](Cc2ccc(C)cc2)C(=O)N(C)CC(=O)N[C@@H](CCc2ccc(C(F)(F)F)c(Cl)c2)C(=O)N2C[C@H](CC)C[C@H]2C(=O)NC2(CC(C)(C)C2)C(=O)N(C)[C@@H](C2CCCC2)C(=O)N(C)[C@H](C(=O)N(C)C)CC(=O)N1C [PP2235]	A (a compound having 10 or more and less than 20 is denoted as A)	A (a compound having 10 or more and less than 20 is denoted as A)
0.14	64.7	CCC[C@H]1C(=O)N[C@@H]([C@@H](C)CC)C(=O)N(C)CC(=O)N(C)[C@H]2C/C=C\CCN(C2=O)[C@@H](Cc2ccc(C)cc2)C(=O)N(C)CC(=O)N[C@@H](CCc2ccc(C(F)(F)F)c(Cl)c2)C(=O)N2C[C@H](CC)C[C@H]2C(=O)NC2(CCC2)C(=O)N(C)[C@@H](C2CCCC2)C(=O)N(C)[C@H](C(=O)N(C)C)CC(=O)N1C [PP2237]	A (a compound having 10 or more and less than 20 is denoted as A)	A (a compound having 10 or more and less than 20 is denoted as A)
0.14	3.7	CCCOC[C@H]1C(=O)N[C@@H]([C@@H](C)CC)C(=O)N(C)CC(=O)N(C)[C@H]2C/C=C\CCN(C2=O)[C@@H](Cc2ccc(C)cc2)C(=O)N(C)CC(=O)N[C@@H](CCc2ccc(C(F)(F)F)c(OC)c2)C(=O)N2C[C@H](OCC)C[C@H]2C(=O)N(C)C2(CCC2)C(=O)N(C)[C@@H](C(CC)CC)C(=O)N(C)[C@H](C(=O)N(C)C)CC(=O)N1C [PP2323]	A (a compound having 10 or more and less than 20 is denoted as A)	A (a compound having 10 or more and less than 20 is denoted as A)
0.12	3.3	CCCOC[C@H]1C(=O)N[C@@H]([C@@H](C)CC)C(=O)N(C2CC2)CC(=O)N(C)[C@H]2C/C=C\CCN(C2=O)[C@@H](Cc2ccc(C(F)(F)F)cc2)C(=O)N(C)CC(=O)N[C@@H](CCc2ccc(C(F)(F)F)c(OC)c2)C(=O)N2C[C@H](OCC)C[C@H]2C(=O)N(C)C2(CCC2)C(=O)N(C)[C@@H](C2CCCC2)C(=O)N(C)[C@H](C(=O)N(C)C)CC(=O)N1C [PP2318]	A (a compound having 10 or more and less than 20 is denoted as A)	A (a compound having 10 or more and less than 20 is denoted as A)
